How the values were obtained:
cultured red blood cells [1] = test: Cell losses at end of red blood cell perfusion culture; assay type: cell-based; conditions: Trolox approximately 100 μM in culture medium, perfusion bioreactor step D7 to D22; average of 6 cultures; 13% loss without Trolox
Description: (§1) Cultured red blood cell production was performed with and without the addition of Trolox during the perfusion bioreactor culture step of the process described below.
(§2) Briefly, the cells cultured according to the invention are total nucleated cells collected by cytapheresis from volunteer donors previously mobilised with G-CSF.
(§3) A first step of the process according to the invention is carried out over 7 days (from D1 to D7) in fed-batch at a temperature of 37° C., under an atmosphere of 5% CO2 and in a culture medium adapted from that described by Giarratana et al. (2011) “Proof of principle for transfusion of in vitro-generated red blood cells”, Blood 118:5071-5079 for the first step of the expansion procedure described in the article (page 5072). Halfway through this step, fresh culture medium is added to the culture so as to dilute the culture by half (the same volume of culture medium is added as the volume initially present). […]
Fifteen cultures were performed (9 without Trolox and 6 with Trolox) and cell losses were measured at the end of the culture, defined as the % decrease in cell concentration between the peak cell concentration and the day the culture was stopped (2 to 3 days later).

cultured red blood cells [2] = test: Preservation yield of cultured red blood cells after 28 days in a preservation solution; assay type: cell-based; conditions: culture conducted with Trolox approximately 100 μM; red blood cells stored for 28 days in a preservation solution; 63% without Trolox
Description: as §1, §2, §3
Furthermore, the red blood cells from the above cultures were stored for 28 days in a preservation solution and the preservation efficiency at the end of the preservation period was determined [100×(final red blood cell count/mL)/(initial red blood cell count/mL].

With `Cc1c(C)c2c(c(C)c1O)CCC(C)(C(=O)O)O2` (centres unmarked) [Trolox, 3,4-dihydro-6-hydroxy-2,5,7,8-tetramethyl-2H-I-benzopyran-2-carboxylic acid] the “cell losses at the end of culture (% decrease in cell concentration between peak cell concentration and day culture was stopped)” value (cultured red blood cells [1]) was 6% and the “average conservation yield [100×(final red blood cell count/mL)/(initial red blood cell count/mL)]” value (cultured red blood cells [2]) was 77%.
